From paper PMC3914206

How the values were obtained:
Format in all cases: binding
Conditions in all cases: Compound Concentration 10 µM
[1] = target: T1, panel of 442 kinases (Homo sapiens, UniProt P16591)
T1 construct: purchased KINOMEscan
Excerpt: (§1) We assessed the selectivity of members of this scaffold using the KINOMEscan methodology across a near comprehensive panel of 442 kinases [[18,27]].

[2] = target: T2, panel of 442 kinases (Mycobacterium tuberculosis, UniProt P9WI81)
T2 construct: purchased KINOMEscan
T2 sequence (P9WI81 whole entry): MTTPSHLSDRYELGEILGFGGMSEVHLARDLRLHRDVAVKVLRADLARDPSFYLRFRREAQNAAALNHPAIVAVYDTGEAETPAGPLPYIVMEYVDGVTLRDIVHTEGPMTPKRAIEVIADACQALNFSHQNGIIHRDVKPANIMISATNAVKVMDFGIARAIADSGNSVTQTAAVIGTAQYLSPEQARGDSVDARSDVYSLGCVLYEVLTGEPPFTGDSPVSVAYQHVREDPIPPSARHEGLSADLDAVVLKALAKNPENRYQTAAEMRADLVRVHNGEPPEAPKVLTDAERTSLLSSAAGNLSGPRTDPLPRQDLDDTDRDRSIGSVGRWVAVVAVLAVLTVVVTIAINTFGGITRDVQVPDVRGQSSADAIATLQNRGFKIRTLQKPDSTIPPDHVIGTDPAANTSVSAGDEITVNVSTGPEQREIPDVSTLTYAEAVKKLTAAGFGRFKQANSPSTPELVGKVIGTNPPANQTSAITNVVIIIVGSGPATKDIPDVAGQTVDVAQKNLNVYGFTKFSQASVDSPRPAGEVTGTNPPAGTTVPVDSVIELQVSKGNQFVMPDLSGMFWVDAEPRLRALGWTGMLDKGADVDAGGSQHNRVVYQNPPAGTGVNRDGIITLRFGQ
Excerpt: as §1

[3] = target: T3, panel of 442 kinases (Homo sapiens, UniProt P42336, H1047L)
T3 construct: purchased KINOMEscan
T3 sequence (P42336 whole entry H1047L): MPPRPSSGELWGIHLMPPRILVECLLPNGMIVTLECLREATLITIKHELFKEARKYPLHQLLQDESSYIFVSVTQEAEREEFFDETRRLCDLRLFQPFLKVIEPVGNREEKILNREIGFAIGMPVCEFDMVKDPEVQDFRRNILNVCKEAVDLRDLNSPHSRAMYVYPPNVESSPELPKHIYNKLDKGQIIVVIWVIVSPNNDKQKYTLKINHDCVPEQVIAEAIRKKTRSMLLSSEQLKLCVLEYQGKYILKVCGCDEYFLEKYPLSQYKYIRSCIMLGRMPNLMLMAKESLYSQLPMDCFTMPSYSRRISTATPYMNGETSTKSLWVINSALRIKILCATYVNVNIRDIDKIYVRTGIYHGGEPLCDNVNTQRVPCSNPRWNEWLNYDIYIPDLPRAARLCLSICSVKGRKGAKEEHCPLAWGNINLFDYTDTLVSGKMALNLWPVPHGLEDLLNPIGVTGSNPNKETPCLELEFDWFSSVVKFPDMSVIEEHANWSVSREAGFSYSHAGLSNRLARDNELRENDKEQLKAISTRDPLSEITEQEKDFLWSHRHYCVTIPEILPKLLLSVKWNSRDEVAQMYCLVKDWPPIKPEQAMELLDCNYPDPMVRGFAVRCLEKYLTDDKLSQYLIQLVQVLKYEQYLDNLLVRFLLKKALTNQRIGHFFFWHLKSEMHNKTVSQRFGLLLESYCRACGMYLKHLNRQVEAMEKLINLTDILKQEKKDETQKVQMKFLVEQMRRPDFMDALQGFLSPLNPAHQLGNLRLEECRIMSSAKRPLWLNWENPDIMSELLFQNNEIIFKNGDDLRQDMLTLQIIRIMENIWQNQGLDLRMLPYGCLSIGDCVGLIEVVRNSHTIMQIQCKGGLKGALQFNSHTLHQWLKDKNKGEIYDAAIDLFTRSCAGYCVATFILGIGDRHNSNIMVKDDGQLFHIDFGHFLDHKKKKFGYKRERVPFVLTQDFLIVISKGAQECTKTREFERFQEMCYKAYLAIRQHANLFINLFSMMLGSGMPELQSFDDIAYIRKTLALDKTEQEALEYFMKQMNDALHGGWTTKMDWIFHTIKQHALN
Excerpt: as §1

[4] = target: T4, panel of 442 kinases (Homo sapiens, UniProt Q13523)
T4 construct: purchased KINOMEscan
T4 sequence (Q13523 whole entry): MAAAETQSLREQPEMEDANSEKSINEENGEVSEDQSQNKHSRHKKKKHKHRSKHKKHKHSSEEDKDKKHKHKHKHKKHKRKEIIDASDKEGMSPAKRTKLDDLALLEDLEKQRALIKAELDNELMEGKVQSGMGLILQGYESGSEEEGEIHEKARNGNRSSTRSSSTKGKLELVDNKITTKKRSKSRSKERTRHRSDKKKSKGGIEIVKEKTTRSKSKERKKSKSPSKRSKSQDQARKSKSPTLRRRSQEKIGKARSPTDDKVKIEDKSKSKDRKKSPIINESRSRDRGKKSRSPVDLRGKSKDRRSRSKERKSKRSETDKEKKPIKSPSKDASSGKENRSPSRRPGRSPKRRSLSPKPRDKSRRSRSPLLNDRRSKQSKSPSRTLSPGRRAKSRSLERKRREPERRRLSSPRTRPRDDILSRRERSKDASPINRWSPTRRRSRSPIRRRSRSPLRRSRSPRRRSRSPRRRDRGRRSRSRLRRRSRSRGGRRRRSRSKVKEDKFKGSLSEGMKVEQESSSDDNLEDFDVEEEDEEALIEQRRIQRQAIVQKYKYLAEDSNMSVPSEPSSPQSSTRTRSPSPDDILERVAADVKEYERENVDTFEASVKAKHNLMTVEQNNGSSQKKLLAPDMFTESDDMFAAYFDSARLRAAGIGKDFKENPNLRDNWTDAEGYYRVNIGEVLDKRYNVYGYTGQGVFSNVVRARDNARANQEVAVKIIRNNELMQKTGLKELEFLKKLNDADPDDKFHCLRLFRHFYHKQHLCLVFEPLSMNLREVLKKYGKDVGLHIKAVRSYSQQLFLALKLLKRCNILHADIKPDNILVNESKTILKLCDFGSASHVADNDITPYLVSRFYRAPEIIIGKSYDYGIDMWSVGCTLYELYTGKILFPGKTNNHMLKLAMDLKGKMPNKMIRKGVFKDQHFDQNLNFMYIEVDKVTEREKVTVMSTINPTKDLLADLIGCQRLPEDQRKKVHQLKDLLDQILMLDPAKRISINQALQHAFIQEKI
Excerpt: as §1

T1 sequence (P16591 whole entry): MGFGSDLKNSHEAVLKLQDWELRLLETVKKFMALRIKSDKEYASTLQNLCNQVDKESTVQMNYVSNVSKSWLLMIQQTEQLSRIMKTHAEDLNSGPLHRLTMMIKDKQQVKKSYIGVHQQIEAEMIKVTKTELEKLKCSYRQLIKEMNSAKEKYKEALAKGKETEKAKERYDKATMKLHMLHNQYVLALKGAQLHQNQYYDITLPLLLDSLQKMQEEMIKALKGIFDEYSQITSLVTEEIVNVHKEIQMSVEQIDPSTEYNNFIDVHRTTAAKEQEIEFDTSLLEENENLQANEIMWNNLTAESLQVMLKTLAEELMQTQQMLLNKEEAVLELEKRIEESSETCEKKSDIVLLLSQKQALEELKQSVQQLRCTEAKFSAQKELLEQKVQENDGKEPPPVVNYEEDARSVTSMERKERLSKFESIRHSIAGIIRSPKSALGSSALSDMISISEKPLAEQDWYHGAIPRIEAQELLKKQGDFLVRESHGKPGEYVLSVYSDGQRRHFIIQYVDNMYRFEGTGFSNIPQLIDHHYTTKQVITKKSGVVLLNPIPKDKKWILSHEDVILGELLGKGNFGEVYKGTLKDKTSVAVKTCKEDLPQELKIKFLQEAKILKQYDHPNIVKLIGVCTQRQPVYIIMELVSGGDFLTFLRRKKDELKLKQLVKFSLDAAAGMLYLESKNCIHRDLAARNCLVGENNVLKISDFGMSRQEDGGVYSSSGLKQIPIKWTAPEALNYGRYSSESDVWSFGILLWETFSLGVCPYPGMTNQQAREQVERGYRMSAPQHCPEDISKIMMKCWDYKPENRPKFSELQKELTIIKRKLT

COc1cc(C(=O)N2CCC(N3CCN(C)CC3)CC2)ccc1Nc1ncc2c(n1)N1CCc3cccc(c31)C(=O)N2C [Compound 24]
KINOMEscan: FER [1]: 64 | KINOMEscan: PKNB(M.tuberculosis) [2]: 98 | KINOMEscan: PIK3CA(H1047L) [3]: 94

CCOc1cc(C(=O)N2CCC(N3CCN(C)CC3)CC2)ccc1Nc1ncc2c(n1)N(C1CCCC1)c1ccccc1C(=O)N2C [Compound 26]
KINOMEscan: FER [1]: 96 | KINOMEscan: PKNB(M.tuberculosis) [2]: 96 | KINOMEscan: PIK3CA(H1047L) [3]: 90 | KINOMEscan: PRP4 [4]: 100

COc1cc(C(=O)N2CCC(N3CCN(C)CC3)CC2)ccc1Nc1ncc2c(n1)N(C1CCCC1)c1ccccc1C(=O)N2C [Compound 25, 11-cyclopentyl-2-((2-methoxy-4-(4-(4-methylpiperazin-1-yl)piperidine-1-carbonyl)phenyl)amino)-5-methyl-5H-benzo[e]pyrimido[5,4-b][1,4]diazepin-6(11H)-one]
KINOMEscan: FER [1]: 38 | KINOMEscan: PKNB(M.tuberculosis) [2]: 100 | KINOMEscan: PIK3CA(H1047L) [3]: 100 | KINOMEscan: PRP4 [4]: 95

COc1cc(C(=O)N2CCC(N3CCN(C)CC3)CC2)ccc1Nc1ncc2c(n1)N(C)c1ccccc1C(=O)N2C [15 (LRRK2-IN-1)]
KINOMEscan: FER [1]: 51 | KINOMEscan: PKNB(M.tuberculosis) [2]: 100 | KINOMEscan: PIK3CA(H1047L) [3]: 20 | KINOMEscan: PRP4 [4]: 93
